# Test results taken from patent US9738634B2, “Heterocyclic amide compound and herbicide” (SYNGENTA PARTICIPATIONS AG, priority 2013, dated 2017).
# Legend:
# Type in all cases: in vivo
# barnyard grass [1] = experiment: Test Example 1: weedkilling efficacy, preemergent weed treatment in the submerged state; A: barnyard grass; conditions: treatment dosage 252 g/ha
# In short: (§1)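 Alluvial soil in Wagner pots flooded to 4 cm; barnyard grass, bulrush and oval-leafed pondweed seeds sown, then 2.5-leaf rice seedlings transplanted. Same day, emulsified compound diluted in water to set g/ha dosages and applied to water surface; greenhouse 25–30 °C, effect scored by criteria after 3 weeks.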
# bulrush [2] = experiment: Test Example 1: weedkilling efficacy, preemergent weed treatment in the submerged state; B: bulrush; conditions: treatment dosage 252 g/ha
# In short: as §1
# oval-leafed pondweed [3] = experiment: Test Example 1: weedkilling efficacy, preemergent weed treatment in the submerged state; C: oval-leafed pondweed; conditions: treatment dosage 252 g/ha
# In short: as §1
# transplanted rice = experiment: Test Example 1: preemergent weed treatment in the submerged state, effect on crop; a: transplanted rice; conditions: treatment dosage 252 g/ha
# In short: as §1
# barnyard grass [4] = experiment: Test Example 2: weedkilling efficacy, growth period weed treatment in the submerged state; A: barnyard grass; conditions: treatment dosage 252 g/ha
# In short: (§2)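 First, alluvial soil in pots is flooded to 4 cm and mixed seed is sown. Next, plants grow in a greenhouse at 25 to 30° C until the 1-2 leaf stage. Then diluted emulsion is applied onto the water surface at the given g/ha rate, and injury is assessed after 3 weeks.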
# bulrush [5] = experiment: Test Example 2: weedkilling efficacy, growth period weed treatment in the submerged state; B: bulrush; conditions: treatment dosage 252 g/ha
# In short: as §2
# oval-leafed pondweed [6] = experiment: Test Example 2: weedkilling efficacy, growth period weed treatment in the submerged state; C: oval-leafed pondweed; conditions: treatment dosage 252 g/ha
# In short: as §2
# crabgrass [7] = experiment: Test Example 3: weedkilling efficacy through soil treatment; D: crabgrass; conditions: treatment dosage 315 g/ha
# In short: (§3)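 Crop and weed responses were judged three weeks after a uniform surface spray of the water-diluted emulsion at the given g/ha rate. Seeds sat beneath about 1.5 cm of sterilized diluvial soil, and boxes stood in a greenhouse at 25 to 30° C.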
# green foxtail [8] = experiment: Test Example 3: weedkilling efficacy through soil treatment; E: green foxtail; conditions: treatment dosage 315 g/ha
# In short: as §3
# wild oat [9] = experiment: Test Example 3: weedkilling efficacy through soil treatment; G: wild oat; conditions: treatment dosage 315 g/ha
# In short: as §3
# black-grass [10] = experiment: Test Example 3: weedkilling efficacy through soil treatment; H: black-grass; conditions: treatment dosage 315 g/ha
# In short: as §3
# Italian ryegrass [11] = experiment: Test Example 3: weedkilling efficacy through soil treatment; I: Italian ryegrass; conditions: treatment dosage 315 g/ha
# In short: as §3
# Indian mallow [12] = experiment: Test Example 3: weedkilling efficacy through soil treatment; K: Indian mallow; conditions: treatment dosage 315 g/ha
# In short: as §3
# redroot pigweed [13] = experiment: Test Example 3: weedkilling efficacy through soil treatment; L: redroot pigweed; conditions: treatment dosage 315 g/ha
# In short: as §3
# fig-leafed goosefoot [14] = experiment: Test Example 3: weedkilling efficacy through soil treatment; M: fig-leafed goosefoot; conditions: treatment dosage 315 g/ha
# In short: as §3
# catchweed [15] = experiment: Test Example 3: weedkilling efficacy through soil treatment; O: catchweed; conditions: treatment dosage 315 g/ha
# In short: as §3
# corn [16] = experiment: Test Example 3: soil treatment, effect on crop; c: corn; conditions: treatment dosage 315 g/ha
# In short: as §3
# soybean [17] = experiment: Test Example 3: soil treatment, effect on crop; d: soybean; conditions: treatment dosage 315 g/ha
# In short: as §3
# wheat [18] = experiment: Test Example 3: soil treatment, effect on crop; e: wheat; conditions: treatment dosage 315 g/ha
# In short: as §3
# beet [19] = experiment: Test Example 3: soil treatment, effect on crop; f: beet; conditions: treatment dosage 315 g/ha
# In short: as §3
# crabgrass [20] = experiment: Test Example 4: weedkilling efficacy by foliar treatment; D: crabgrass; conditions: treatment dosage 315 g/ha
# In short: (§4)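 Seeds are spot-sown into sterilized diluvial soil and covered with about 1.5 cm of soil. After 14 days' greenhouse growth at 25 to 30° C, plants are sprayed on stems and leaves with diluted emulsion at the stated g/ha rate, then scored at 3 weeks.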
# green foxtail [21] = experiment: Test Example 4: weedkilling efficacy by foliar treatment; E: green foxtail; conditions: treatment dosage 315 g/ha
# In short: as §4
# wild oat [22] = experiment: Test Example 4: weedkilling efficacy by foliar treatment; G: wild oat; conditions: treatment dosage 315 g/ha
# Experimental: Testing of Weedkilling Efficacy by Foliar Treatment
# Sterilized diluvial soil was introduced into 21 cm long, 13 cm wide, 7 cm deep plastic boxes, and seeds of crabgrass, green foxtail, barnyard grass, wild oat, black-grass, Italian ryegrass, common wind-grass, Indian mallow, redroot pigweed, fig-leafed goosefoot, chickweed, catchweed, birds-eye speedwell, corn, soybean, rice, wheat, beet and rapeseed were each spot-sown, and covered with about 1.5 cm of soil, then the plants were grown in a greenhouse at 25 to 30° C.
# After they had grown for 14 days, emulsions of compounds of the present invention prepared according to compounding example 2 were diluted with water to give the specified dosages, and applied uniformly onto the stem and leaf parts with a small sprayer. 3 weeks after the pesticide treatment the effect on each type of plant was investigated on the basis of the assessment criteria of test example 1.
# A: barnyard grass, B: bulrush, C: oval-leafed pondweed, D: crabgrass, E: green foxtail, F: barnyard grass, G: wild oat, H: black-grass, I: Italian ryegrass, J: common wind-grass, K: Indian mallow, L: redroot pigweed, M: fig-leafed goosefoot, N: chickweed, O: catchweed, p: birds-eye speedwell, a: transplanted rice, b: directly sown rice, c: corn, d: soybean, e: wheat, f: beet, g: rapeseed
# Further, pesticide dosage (g/ha) indicates the concentration regulated such that treatment was with only the stated number of grams (g), when calculated per hectare (ha).
# black-grass [23] = experiment: Test Example 4: weedkilling efficacy by foliar treatment; H: black-grass; conditions: treatment dosage 315 g/ha
# In short: as §4
# Italian ryegrass [24] = experiment: Test Example 4: weedkilling efficacy by foliar treatment; I: Italian ryegrass; conditions: treatment dosage 315 g/ha
# In short: as §4
# Indian mallow [25] = experiment: Test Example 4: weedkilling efficacy by foliar treatment; K: Indian mallow; conditions: treatment dosage 315 g/ha
# In short: as §4
# redroot pigweed [26] = experiment: Test Example 4: weedkilling efficacy by foliar treatment; L: redroot pigweed; conditions: treatment dosage 315 g/ha
# In short: as §4
# fig-leafed goosefoot [27] = experiment: Test Example 4: weedkilling efficacy by foliar treatment; M: fig-leafed goosefoot; conditions: treatment dosage 315 g/ha
# In short: as §4
# chickweed = experiment: Test Example 4: weedkilling efficacy by foliar treatment; N: chickweed; conditions: treatment dosage 315 g/ha
# In short: as §4
# catchweed [28] = experiment: Test Example 4: weedkilling efficacy by foliar treatment; O: catchweed; conditions: treatment dosage 315 g/ha
# In short: as §4
# directly sown rice = experiment: Test Example 4: foliar treatment, effect on crop; b: directly sown rice; conditions: treatment dosage 315 g/ha
# In short: as §4
# corn [29] = experiment: Test Example 4: foliar treatment, effect on crop; c: corn; conditions: treatment dosage 315 g/ha
# In short: as §4
# soybean [30] = experiment: Test Example 4: foliar treatment, effect on crop; d: soybean; conditions: treatment dosage 315 g/ha
# In short: as §4
# wheat [31] = experiment: Test Example 4: foliar treatment, effect on crop; e: wheat; conditions: treatment dosage 315 g/ha
# In short: as §4
# beet [32] = experiment: Test Example 4: foliar treatment, effect on crop; f: beet; conditions: treatment dosage 315 g/ha
# In short: as §4
structure (smiles),measurement,setting,value
CC1=C(c2ccccc2)C(=O)N(C(C)(C)C(=O)Nc2ccnc(C(F)(F)F)c2)CO1 [B-4-06],A (barnyard grass) weedkilling efficacy grade,barnyard grass [1],"5 (weed kill ratio 90% or more, (practically complete withering))"
same,B (bulrush) weedkilling efficacy grade,bulrush [2],"5 (weed kill ratio 90% or more, (practically complete withering))"
same,C (oval-leafed pondweed) weedkilling efficacy grade,oval-leafed pondweed [3],"5 (weed kill ratio 90% or more, (practically complete withering))"
same,a (transplanted rice) effect on crop grade,transplanted rice,0 (weed kill ratio 5% or less (practically no effect))
same,A (barnyard grass) weedkilling efficacy grade,barnyard grass [4],"4 (weed kill ratio 70% or more, less than 90%)"
same,B (bulrush) weedkilling efficacy grade,bulrush [5],"5 (weed kill ratio 90% or more, (practically complete withering))"
same,C (oval-leafed pondweed) weedkilling efficacy grade,oval-leafed pondweed [6],"5 (weed kill ratio 90% or more, (practically complete withering))"
same,D (crabgrass) weedkilling efficacy grade,crabgrass [7],"5 (weed kill ratio 90% or more, (practically complete withering))"
same,E (green foxtail) weedkilling efficacy grade,green foxtail [8],"5 (weed kill ratio 90% or more, (practically complete withering))"
same,G (wild oat) weedkilling efficacy grade,wild oat [9],"5 (weed kill ratio 90% or more, (practically complete withering))"
same,H (black-grass) weedkilling efficacy grade,black-grass [10],"5 (weed kill ratio 90% or more, (practically complete withering))"
same,I (Italian ryegrass) weedkilling efficacy grade,Italian ryegrass [11],"5 (weed kill ratio 90% or more, (practically complete withering))"
same,K (Indian mallow) weedkilling efficacy grade,Indian mallow [12],"1 (weed kill ratio 5% or more, less than 20%)"
same,L (redroot pigweed) weedkilling efficacy grade,redroot pigweed [13],"3 (weed kill ratio 40% or more, less than 70%)"
same,M (fig-leafed goosefoot) weedkilling efficacy grade,fig-leafed goosefoot [14],"4 (weed kill ratio 70% or more, less than 90%)"
same,O (catchweed) weedkilling efficacy grade,catchweed [15],"4 (weed kill ratio 70% or more, less than 90%)"
same,c (corn) effect on crop grade,corn [16],"2 (weed kill ratio 20% or more, less than 40%)"
same,d (soybean) effect on crop grade,soybean [17],0 (weed kill ratio 5% or less (practically no effect))
same,e (wheat) effect on crop grade,wheat [18],"3 (weed kill ratio 40% or more, less than 70%)"
same,f (beet) effect on crop grade,beet [19],"4 (weed kill ratio 70% or more, less than 90%)"
same,D (crabgrass) weedkilling efficacy grade,crabgrass [20],"5 (weed kill ratio 90% or more, (practically complete withering))"
same,E (green foxtail) weedkilling efficacy grade,green foxtail [21],"5 (weed kill ratio 90% or more, (practically complete withering))"
same,G (wild oat) weedkilling efficacy grade,wild oat [22],"5 (weed kill ratio 90% or more, (practically complete withering))"
same,H (black-grass) weedkilling efficacy grade,black-grass [23],"5 (weed kill ratio 90% or more, (practically complete withering))"
same,I (Italian ryegrass) weedkilling efficacy grade,Italian ryegrass [24],"5 (weed kill ratio 90% or more, (practically complete withering))"
same,K (Indian mallow) weedkilling efficacy grade,Indian mallow [25],"3 (weed kill ratio 40% or more, less than 70%)"
same,L (redroot pigweed) weedkilling efficacy grade,redroot pigweed [26],"4 (weed kill ratio 70% or more, less than 90%)"
same,M (fig-leafed goosefoot) weedkilling efficacy grade,fig-leafed goosefoot [27],"4 (weed kill ratio 70% or more, less than 90%)"
same,N (chickweed) weedkilling efficacy grade,chickweed,"3 (weed kill ratio 40% or more, less than 70%)"
same,O (catchweed) weedkilling efficacy grade,catchweed [28],"4 (weed kill ratio 70% or more, less than 90%)"
same,b (directly sown rice) effect on crop grade,directly sown rice,"5 (weed kill ratio 90% or more, (practically complete withering))"
same,c (corn) effect on crop grade,corn [29],"5 (weed kill ratio 90% or more, (practically complete withering))"
same,d (soybean) effect on crop grade,soybean [30],"4 (weed kill ratio 70% or more, less than 90%)"
same,e (wheat) effect on crop grade,wheat [31],"1 (weed kill ratio 5% or more, less than 20%)"
same,f (beet) effect on crop grade,beet [32],"3 (weed kill ratio 40% or more, less than 70%)"
